The values below come from patent US12398179B2, “Nanomolar peptides and derivatives to differentially modulate ephrin receptors” (Sanford Burnham Prebys Medical Discovery Institute, priority 2019, dated 2025).

The test system of one data set is AKT. The data set is described as follows: AKT S473 phosphorylation in PC3 cells (immunoblot). It is filed as cell-based. The conditions noted are these: peptide then 0.1 μg/ml ephrin-A1 Fc. The protocol:
(§1) PC3 cells were treated for 15 min with different concentrations of the indicated peptides. […] The graphs show quantification of pY588 and pAKT from multiple blots (averages±SE), normalized to total EphA2 levels. The number of experiments analyzed is: 5 in FIG. 4A, 3 in FIG. 4B, 7 in FIG. 4C, 7 in FIG. 4D, 5 in FIG. 4E, 3 in FIG. 4F, 3 in FIG. 4G and 2 in FIG. 4H.
For orientation: In western blotting, separated proteins are transferred to a membrane and probed.

Data set [1] in a line: Peptide solubility in PBS/H2O.
Another data set has as its target T1, EphA2 LBD (Homo sapiens, UniProt P29317).
T1 construct: EphA2 LBD (residues 28-200); made in house; host or cells: E. coli Origami 2 (DE3)
The data set is described as follows: Isothermal titration calorimetry (ITC) of peptide binding. The protocol:
For ITC, all peptides were dissolved in DMSO and both the EphA2 LBD and the peptides were diluted to obtain a final buffer containing 9.5 mM HEPES, pH 7.9, 95 mM NaCl, and 5% DMSO. […] Two-microliter aliquots of a peptide solution were injected into the cell containing 205 μL EphA2 LBD. 200-400 μM peptides were titrated into 20-40 μM EphA2 LBD. Experimental data were analyzed using the Origin software package (Microcal). The integrated values for the reaction heats were normalized to the amount of injected peptide after blank subtraction.
(In general: ITC needs no label: the signal is the heat of the interaction.)

Data set [2] deals with T2, EphA2 (Homo sapiens, UniProt P29317). The data set is described as follows: ELISA: inhibition of ephrin-A5 AP binding to immobilized EphA2 Fc. Further details: the immobilized EphA2 extracellular domain fused to the Fc portion of an antibody (EphA2 Fc). The conditions noted are these: average ± SE. How it is done: (FIG. 2A) Representative ELISAs comparing the ability of the peptides to inhibit binding of ephrin-A5 fused to alkaline phosphatase (ephrin-A5 AP) to the immobilized EphA2 extracellular domain fused to the Fc portion of an antibody (EphA2 Fc). The graphs show averages±SE from triplicate measurements from a representative experiment. IC50 values calculated from the fitted curves in each experiment are shown. All concentrations are nM and the 100 nM peptide concentration is outlined in red. (FIG. 2B) Ephrin-A5 AP binding to the indicated EphA receptors and ephrin-B2 AP binding to the indicated EphB receptors in the presence of the indicated peptide, normalized to ephrin binding without peptide. The bars show averages±SE from triplicate measurements.
Target sequence in this assay (P29317 24-537 limits assumed, species assumed): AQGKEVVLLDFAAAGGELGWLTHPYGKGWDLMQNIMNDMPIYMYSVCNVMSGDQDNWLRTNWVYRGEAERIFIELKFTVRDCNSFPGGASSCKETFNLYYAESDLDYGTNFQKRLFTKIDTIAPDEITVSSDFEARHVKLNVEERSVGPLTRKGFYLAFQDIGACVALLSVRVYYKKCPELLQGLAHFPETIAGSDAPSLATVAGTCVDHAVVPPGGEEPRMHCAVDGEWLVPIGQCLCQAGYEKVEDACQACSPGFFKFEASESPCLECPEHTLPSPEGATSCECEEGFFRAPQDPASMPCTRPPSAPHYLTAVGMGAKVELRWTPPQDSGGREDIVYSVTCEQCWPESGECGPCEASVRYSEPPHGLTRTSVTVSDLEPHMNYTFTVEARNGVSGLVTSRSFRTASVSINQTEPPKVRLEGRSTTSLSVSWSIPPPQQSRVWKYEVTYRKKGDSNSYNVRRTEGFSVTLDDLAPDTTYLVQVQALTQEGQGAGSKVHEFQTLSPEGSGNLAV
Background: In an ELISA, binding on a coated surface is turned into a signal by an enzyme label.

Data set [3] concerns the target T2, EphA2. In words: Inhibition of ephrin-A1 Fc-induced EphA2 Y588 phosphorylation in PC3 cells. The conditions noted are these: 20 min peptide then 0.1 μg/ml ephrin-A1 Fc. It is filed as cell-based. On the set-up: endogenous EphA2 expressed in PC3 prostate cancer cells; endogenous in cells; host or cells: PC3 prostate cancer cells. The protocol: PC3 cells were treated for 20 min with different concentrations of the indicated peptides and then activated with 0.1 μg/ml ephrin-Al Fc. The immunoblots show EphA2 autophosphorylation on tyrosine 588 (pY588, indicative of receptor activation), total EphA2 levels, and AKT phosphorylation on S473 (indicative of AKT activation). pY588 values were normalized to the value obtained in the same blot with ephrin-Al Fc treatment in the absence of peptide. pAKT values were normalized to the value obtained in the same blot without ephrin-A1 Fc or peptide treatment. Calculated EC50 and IC50 values are shown. The graphs show quantification of pY588 and pAKT from 7 blots for each peptide (averages±SE), normalized to total EphA2 levels.
Target sequence in this assay (P29317 24-976): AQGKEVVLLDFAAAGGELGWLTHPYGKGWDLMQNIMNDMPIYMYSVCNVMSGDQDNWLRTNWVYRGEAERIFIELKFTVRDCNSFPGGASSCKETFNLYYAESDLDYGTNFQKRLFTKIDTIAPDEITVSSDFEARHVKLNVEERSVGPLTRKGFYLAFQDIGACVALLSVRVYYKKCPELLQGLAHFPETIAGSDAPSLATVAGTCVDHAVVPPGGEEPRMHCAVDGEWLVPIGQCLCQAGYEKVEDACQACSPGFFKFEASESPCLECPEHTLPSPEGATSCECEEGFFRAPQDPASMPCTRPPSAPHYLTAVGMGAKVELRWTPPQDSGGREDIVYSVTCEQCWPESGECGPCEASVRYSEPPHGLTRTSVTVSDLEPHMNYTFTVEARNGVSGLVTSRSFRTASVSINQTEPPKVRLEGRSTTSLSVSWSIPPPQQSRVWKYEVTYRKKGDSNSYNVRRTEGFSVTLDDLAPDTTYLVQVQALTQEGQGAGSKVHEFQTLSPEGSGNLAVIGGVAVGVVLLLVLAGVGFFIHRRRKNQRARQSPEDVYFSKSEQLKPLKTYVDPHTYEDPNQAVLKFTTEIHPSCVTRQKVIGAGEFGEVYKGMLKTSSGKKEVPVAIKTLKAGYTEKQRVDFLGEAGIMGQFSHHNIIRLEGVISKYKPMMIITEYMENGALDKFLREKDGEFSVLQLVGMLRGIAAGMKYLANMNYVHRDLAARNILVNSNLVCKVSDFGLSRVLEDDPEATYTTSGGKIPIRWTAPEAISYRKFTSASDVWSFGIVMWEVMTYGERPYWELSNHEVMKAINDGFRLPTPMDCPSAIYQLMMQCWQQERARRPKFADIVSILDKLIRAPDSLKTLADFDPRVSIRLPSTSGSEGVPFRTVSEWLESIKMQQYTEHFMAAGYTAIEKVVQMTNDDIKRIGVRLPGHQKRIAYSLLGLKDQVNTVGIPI

Data set [4] has as its target T2, EphA2. The data set is described as follows: EphA2 Y588 autophosphorylation in PC3 cells (immunoblot). It is filed as cell-based. On the set-up: endogenous EphA2 expressed in PC3 prostate cancer cells; endogenous in cells; host or cells: PC3 prostate cancer cells. As to conditions: for EphA2 activation / Y588 phosphorylation (in words): 15 min. The protocol: as §1
Target sequence in this assay (P29317 24-976): as above
PC3 cells were treated for 15 min with different concentrations of the indicated peptides. […] The graphs show quantification of pY588 or pAKT from multiple blots (averages±SE), normalized to total EphA2 levels. The number of experiments analyzed is: 3 in FIG. 10A, 6 in FIG. 10B, 2 in FIG. 10C, 5 in FIG. 10D, 4 in FIG. 10E and 3 in FIG. 10F.

The target of the next data set is T3, EphA2 WT (Homo sapiens, UniProt P29317).
T3 construct: expressed in transfected cells; host or cells: HEK293 (transient transfection)
T3 sequence (P29317 24-976): as above
In words: Quantitative FRET of EphA2 oligomerization in HEK293 cells. The conditions noted are these: transiently transfected HEK293 cells; 50 μM for YSA-GSGSK-bio. It is filed as cell-based.

In another data set the target is T4, EphA2 G131Y (Homo sapiens, UniProt P29317, G131Y).
T4 construct: expressed in transfected cells; host or cells: HEK293 (transient transfection)
T4 sequence (P29317 24-976 G131Y): as the sequence (P29317 24-976) above, with G108Y counted along it
The data set is described as above. It is filed as cell-based. The conditions noted are these: 50 μM peptide. From the text:
(§2) (FIG. 5F) Two-dimensional dissociation constant values (Kdiss) and dimerization free energy values (ΔG=−RT×In (10^6/Kdiss) calculated from the curves shown in the other panels. Shown are the best fit values and the […] confidence intervals (standard errors). Kdiss values for all curves were compared to each other using one-way ANOVA followed by Tukey's multiple comparison test; *, P<0.05; **, P<0.01; ***, P<0.001; * P<0.0001; ns, not significant.
(§3) Thus, the peptide enhanced the weak EphA2 dimerization observed in the absence of a bound ligand, which also occurred through the clustering interface. In contrast, the monomeric soluble form of ephrin-Al induced the formation of EphA2 dimers that assembled through another extracellular interface known as the “heterodimerization” or “dimerization” interface.

The target in a further data set is T5, EphA2 L223R/L254R/V255R (Homo sapiens, UniProt P29317, L223R/L254R/V255R).
T5 construct: expressed in transfected cells; host or cells: HEK293 (transient transfection)
T5 sequence (P29317 24-976 L223R/L254R/V255R): as the sequence (P29317 24-976) above, with L200R, L231R, V232R counted along it
The description is as above. It is filed as cell-based. The conditions noted are these: 50 μM peptide.
Text: as §2, §3

The mark [5] stands for this setting: PBS, Solubility in PBS (mg/ml), PBS (first figure of cell).
[6] abbreviates: water, Solubility in H2O (mg/ml), H2O (second figure of cell).
Setting [7] is: EphA2 LBD, 23° C., average ± SE (Table 1), read-out: KD (nM) by ITC.

SMILES strings stand for the structures. Values after ≈ are worked out from the molar mass of the structure shown. Like-named read-outs stand apart in the source and are kept apart here.

T1 sequence (P29317 28-200): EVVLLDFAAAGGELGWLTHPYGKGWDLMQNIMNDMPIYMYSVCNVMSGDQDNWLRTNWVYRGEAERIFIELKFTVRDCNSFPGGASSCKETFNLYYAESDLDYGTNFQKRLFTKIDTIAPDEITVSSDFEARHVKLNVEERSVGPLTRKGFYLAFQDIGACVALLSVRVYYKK

Usually solubility stands for the concentration that dissolves in the medium under given conditions. For orientation: IC50 means the concentration that gives 50% inhibition. A low value points to greater potency. Consider `CC(C)C[C@H](NC(=O)[C@H](Cc1c[nH]c2ccccc12)NC(=O)CCN)C(=O)N[C@@H](C)C(=O)N[C@@H](Cc1ccc(O)cc1)C(=O)N1CCC[C@H]1C(=O)N[C@@H](CC(=O)O)C(=O)N[C@@H](CO)C(=O)N[C@H](C(=O)N1CCC[C@H]1C(=O)N[C@@H](Cc1ccc(O)cc1)C(=O)N[C@@H](CCCNC(=N)N)C(=O)N1CCC[C@H]1C(=O)N[C@@H](CCCCN)C(N)=O)C(C)C` [βA-WLA-YRPKam], for which, in the data set on AKT, the “effect on AKT inhibition caused by EphA2 activation” value is on record as “prevented the inhibitory effects”. Moreover, the solubility in data set [1] (setting [5]) and in data set [1] (setting [6]) was 10000 µg/mL (≈ 6.02 mM) throughout. The Kd on EphA2 LBD (setting [7]) turned out to be 110 nM. Further, the IC50 at EphA2 [2] came to 19 ± 2 nM. Besides, the “effect on EphA2 Y588 phosphorylation induced by ephrin-A1 Fc” value at EphA2 [3] is “inhibited”.

In the case of `CC(=O)NCCCC[C@H](NC(=O)[C@@H]1CCCN1C(=O)[C@H](CCCNC(=N)N)NC(=O)[C@H](Cc1ccc(O)cc1)NC(=O)[C@@H]1CCCN1C(=O)[C@@H](NC(=O)[C@H](CO)NC(=O)[C@H](CC(=O)O)NC(=O)[C@@H]1CCCN1C(=O)[C@H](Cc1ccc(O)cc1)NC(=O)[C@H](C)NC(=O)[C@H](CC(C)C)NC(=O)[C@H](Cc1c[nH]c2ccccc12)NC(=O)CCN)C(C)C)C(=O)O` [βA-WLA-YRP-ack], the “EphA2 activation / Y588 phosphorylation (in words)” value at EphA2 [4] is reported as “only slightly increased agonistic ability”. Besides, the solubility in data set [1] (setting [5]) and in data set [1] (setting [6]) was 5000 µg/mL (≈ 2.93 mM) in each case. For the same compound, the IC50 on EphA2 [2] was determined as 82 ± 10 nM.

Consider `CC(C)C[C@H](NC(=O)[C@H](Cc1c[nH]c2ccccc12)NC(=O)CCN)C(=O)N[C@@H](C)C(=O)N[C@@H](Cc1ccc(O)cc1)C(=O)N1CCC[C@H]1C(=O)N[C@@H](CC(=O)O)C(=O)N[C@@H](CO)C(=O)N[C@H](C(=O)N1CCC[C@H]1C(=O)N[C@@H](Cc1ccc(O)cc1)C(=O)N[C@@H](CCCNC(=N)N)C(=O)N1CCC[C@H]1C(=O)N[C@@H](CCCCNC(=O)CCCC[C@@H]1SC[C@@H]2NC(=O)N[C@@H]21)C(N)=O)C(C)C` [βA-WLA-YRPKam-bio], for which the “EphA2 activation / Y588 phosphorylation (in words)” value on EphA2 [4] is “induce high levels of EphA2 phosphorylation”. Also, the solubility in data set [1] (setting [5]) came out at 2000 µg/mL (≈ 1.06 mM); in data set [1] (setting [6]), 5000 µg/mL (≈ 2.65 mM). The IC50 on EphA2 [2] stood at 18 ± 1 nM.

`CC(C)C[C@H](NC(=O)[C@H](Cc1c[nH]c2ccccc12)NC(=O)CCN)C(=O)N[C@@H](C)C(=O)N[C@@H](Cc1ccc(O)cc1)C(=O)N1CCC[C@H]1C(=O)N[C@@H](CC(=O)O)C(=O)N[C@@H](CO)C(=O)N[C@H](C(=O)N1CCC[C@H]1C(=O)N[C@@H](Cc1ccc(O)cc1)C(=O)N[C@@H](CCCNC(=N)N)C(=O)N1CCC[C@H]1C(=O)N[C@@H](CCCCN)C(=O)O)C(C)C` [βA-WLA-YRPK]: the “EphA2 activation / Y588 phosphorylation (in words)” value at EphA2 [4] is given as “substantial ability to activate EphA2”. Moreover, the “maximal Y588 phosphorylation lower than biotinylated peptide” value at EphA2 [4] (saturating peptide concentrations) was “about 40%”. Besides, the solubility in data set [1] (setting [5]) and in data set [1] (setting [6]) was 10000 µg/mL (≈ 6.01 mM) each time. The Kd on EphA2 LBD (setting [7]) was 190 nM; on EphA2 LBD (read-out: binding affinity for the EphA2 LBD measured by ITC) it was around 200 nM. Further, the IC50 on EphA2 [2] worked out at 55 ± 5 nM.

With `CC(C)C[C@H](NC(=O)[C@H](Cc1c[nH]c2ccccc12)NC(=O)[C@@H](N)CO)C(=O)N[C@@H](C)C(=O)N[C@@H](Cc1ccc(O)cc1)C(=O)N1CCC[C@H]1C(=O)NCC(=O)N[C@@H](C)C(=O)N[C@H](C(=O)N[C@@H](CO)C(=O)N[C@@H](Cc1ccc(O)cc1)C(=O)N[C@@H](CCCN=C(N)N)C(=O)O)C(C)C` [SWL], the solubility in the data set “physchem” (Solubility in H2O (mg/ml)) was 10000 µg/mL (≈ 7.3 mM); in the data set “physchem” (Solubility in PBS (mg/ml)), 5000 µg/mL (≈ 3.65 mM).

Take `CSCC[C@H](NC(=O)[C@H](CCSC)NC(=O)[C@@H]1CCCN1C(=O)[C@@H](NC(=O)[C@H](CO)NC(=O)[C@H](CC(=O)O)NC(=O)[C@@H]1CCCN1C(=O)[C@H](Cc1ccc(O)cc1)NC(=O)[C@H](C)NC(=O)[C@H](CO)NC(=O)[C@@H](N)Cc1ccc(O)cc1)C(C)C)C(=O)N[C@@H](CO)C(=O)NCC(=O)N[C@@H](CO)C(=O)NCC(=O)N[C@@H](CO)C(=O)N[C@@H](CCCCNC(=O)CCCC[C@@H]1SC[C@@H]2NC(=O)N[C@@H]21)C(=O)O` [YSA-GSGSK-bio]: the solubility in data set [1] (setting [5]) and in data set [1] (setting [6]) was 15000 µg/mL (≈ 7.54 mM) throughout. Also, the “EphA2 WT oligomerization by FRET” value on EphA2 WT was “substantially increased the oligomeric fraction”. Further, the “EphA2 G131Y oligomerization by FRET” value on EphA2 G131Y is “had no effect on/reduced oligomerization”. For the same compound, the “EphA2 L223R/L254R/V255R oligomerization by FRET” value on EphA2 L223R/L254R/V255R is “promoted substantial oligomerization”.
